Test results reported in patent US7777047B2, “Indole compound” (Takeda Pharmaceutical Company Limited, priority 2006, dated 2010).

With `Cc1ccc(N(C)S(=O)(=O)c2cccs2)c2[nH]c(-c3ncc(CN4CCC(O)C4)s3)cc12` (stereo not drawn) [Example 251, N-(2-{5-[(3-hydroxypyrrolidin-1-yl)methyl]-1,3-thiazol-2-yl}-4-methyl-1H-indol-7-yl)-N-methylthiophene-2-sulfonamide] as the compound, how does the melting point read?
Its melting point is 190 to 191 °C.

For `CCOC(=O)CC1CN=C(c2cc3cccc(N(C)S(=O)(=O)c4cccs4)c3[nH]2)S1` (stereo not drawn) [Example 283, ethyl (2-{7-[methyl(2-thienylsulfonyl)amino]-1H-indol-2-yl}-4,5-dihydro-1,3-thiazol-5-yl)acetate], which melting point is on record?
The melting point was 101 to 102 °C.

Which melting point does the source give for `CN(c1cccc2cc(C3=NCC(CC(=O)O)S3)[nH]c12)S(=O)(=O)c1cccs1` (stereo not drawn) [Example 284, (2-{7-[methyl(2-thienylsulfonyl)amino]-1H-indol-2-yl}-4,5-dihydro-1,3-thiazol-5-yl)acetic acid] here?
Its melting point is 232 to 234 °C.

With `CN(c1cccc2cc(C3=NCC(CCO)S3)[nH]c12)S(=O)(=O)c1cccs1` (stereo not drawn) [Example 285, N-{2-[5-(2-hydroxyethyl)-4,5-dihydro-1,3-thiazol-2-yl]-1H-indol-7-yl}-N-methylthiophene-2-sulfonamide] as the compound, how does the melting point read?
The melting point was 174 to 175 °C.

For `CN1CCN(C(=O)CC2CN=C(c3cc4cccc(N(C)S(=O)(=O)c5cccs5)c4[nH]3)S2)CC1` (stereo not drawn) [Example 286, N-methyl-N-(2-{5-[2-(4-methylpiperazin-1-yl)-2-oxoethyl]-4,5-dihydro-1,3-thiazol-2-yl}-1H-indol-7-yl)thiophene-2-sulfonamide], which melting point is on record?
Its melting point is 151 to 153 °C.

For `CN(c1cccc2cc(C3=NCC(CC(N)=O)S3)[nH]c12)S(=O)(=O)c1cccs1` (stereo not drawn) [Example 287, 2-(2-{7-[methyl(2-thienylsulfonyl)amino]-1H-indol-2-yl}-4,5-dihydro-1,3-thiazol-5-yl)acetamide], which melting point is on record?
Its melting point is 193 to 194 °C.

With `CN(c1cccc2cc(C3=NCC(CCN4C(=O)CCC4=O)S3)[nH]c12)S(=O)(=O)c1cccs1` (stereo not drawn) [Example 288, N-(2-{5-[2-(2,5-dioxopyrrolidin-1-yl)ethyl]-4,5-dihydro-1,3-thiazol-2-yl}-1H-indol-7-yl)-N-methylthiophene-2-sulfonamide] as the compound, how does the melting point read?
Its melting point is 189 to 191 °C.

For `CCOC(=O)CC1CN=C(c2cc3c(C)ccc(N(C)S(=O)(=O)c4cccs4)c3[nH]2)S1` (stereo not drawn) [Example 290, ethyl (2-{4-methyl-7-[methyl(2-thienylsulfonyl)amino]-1H-indol-2-yl}-4,5-dihydro-1,3-thiazol-5-yl)acetate], which melting point is on record?
The melting point was 109 to 110 °C.

For `Cc1ccc(N(C)S(=O)(=O)c2cccs2)c2[nH]c(C3=NCC(CCO)S3)cc12` (stereo not drawn) [Example 291, N-{2-[5-(2-hydroxyethyl)-4,5-dihydro-1,3-thiazol-2-yl]-4-methyl-1H-indol-7-yl}-N-methylthiophene-2-sulfonamide], which melting point is on record?
Its melting point is 168 to 169 °C.

With `Cc1ccc(N(C)S(=O)(=O)c2cccs2)c2[nH]c(C3=NCC(CC(=O)O)S3)cc12` (stereo not drawn) [Example 292, (2-{4-methyl-7-[methyl(2-thienylsulfonyl)amino]-1H-indol-2-yl}-4,5-dihydro-1,3-thiazol-5-yl)acetic acid] as the compound, how does the melting point read?
Its melting point is 269 to 270 °C.

For `Cc1ccc(N(C)S(=O)(=O)c2cccs2)c2[nH]c(C3=NCC(CC(N)=O)S3)cc12` (stereo not drawn) [Example 293, 2-(2-{4-methyl-7-[methyl(2-thienylsulfonyl)amino]-1H-indol-2-yl}-4,5-dihydro-1,3-thiazol-5-yl)acetamide], which melting point is on record?
Its melting point is 120 to 121 °C.

Which melting point does the source give for `CN(C)C(=O)CC1CN=C(c2cc3cccc(N(C)S(=O)(=O)c4cccs4)c3[nH]2)S1` (stereo not drawn) [Example 294, N,N-dimethyl-2-(2-{7-[methyl(2-thienylsulfonyl)amino]-1H-indol-2-yl}-4,5-dihydro-1,3-thiazol-5-yl)acetamide] here?
Its melting point is 153 to 154 °C.

For `O=S(=O)(Nc1cccc2cc(C3=NCC(CCO)S3)[nH]c12)c1cccs1` (stereo not drawn) [Example 295, N-{2-[5-(2-hydroxyethyl)-4,5-dihydro-1,3-thiazol-2-yl]-1H-indol-7-yl}thiophene-2-sulfonamide], which melting point is on record?
The melting point was 156 to 158 °C.

Which melting point does the source give for `O=C(O)CC1CN=C(c2cc3cccc(NS(=O)(=O)c4cccs4)c3[nH]2)S1` (stereo not drawn) [Example 296, (2-{7-[(2-thienylsulfonyl)amino]-1H-indol-2-yl}-4,5-dihydro-1,3-thiazol-5-yl)acetic acid] here?
The melting point was > 240 °C (dec.).

With `NC(=O)CC1CN=C(c2cc3cccc(NS(=O)(=O)c4cccs4)c3[nH]2)S1` (stereo not drawn) [Example 297, 2-(2-{7-[(2-thienylsulfonyl)amino]-1H-indol-2-yl}-4,5-dihydro-1,3-thiazol-5-yl)acetamide] as the compound, how does the melting point read?
Its melting point is 130 to 131 °C.

Which melting point does the source give for `CON(C)C(=O)CC1CN=C(c2cc3cccc(N(C)S(=O)(=O)c4cccs4)c3[nH]2)S1` (stereo not drawn) [Example 299, N-methoxy-N-methyl-2-(2-{7-[methyl(2-thienylsulfonyl)amino]-1H-indol-2-yl}-4,5-dihydro-1,3-thiazol-5-yl)acetamide] here?
Its melting point is 153 to 154 °C.

For `CC(=O)CC1CN=C(c2cc3cccc(N(C)S(=O)(=O)c4cccs4)c3[nH]2)S1` (stereo not drawn) [Example 300, N-methyl-N-{2-[5-(2-oxopropyl)-4,5-dihydro-1,3-thiazol-2-yl]-1H-indol-7-yl}thiophene-2-sulfonamide], which melting point is on record?
Its melting point is 123 to 124 °C.

For `C=CC(=O)CC1CN=C(c2cc3cccc(N(C)S(=O)(=O)c4cccs4)c3[nH]2)S1` (stereo not drawn) [Example 301, N-methyl-N-{2-[5-(2-oxobut-3-en-1-yl)-4,5-dihydro-1,3-thiazol-2-yl]-1H-indol-7-yl}thiophene-2-sulfonamide], which melting point is on record?
Its melting point is 157 to 158 °C.

Which melting point does the source give for `CN1CCC(CC2CN=C(c3cc4cccc(N(C)S(=O)(=O)c5cccs5)c4[nH]3)S2)=N1` (stereo not drawn) [Example 302, N-methyl-N-(2-{5-[(1-methyl-4,5-dihydro-1H-pyrazol-3-yl)methyl]-4,5-dihydro-1,3-thiazol-2-yl}-1H-indol-7-yl)thiophene-2-sulfonamide] here?
Its melting point is 149 to 150 °C.

Which melting point does the source give for `CN(c1cccc2cc(C3=NCC(CN4CCSCC4)S3)[nH]c12)S(=O)(=O)c1ccccn1` (stereo not drawn) [Example 303, N-methyl-N-{2-[5-(thiomorpholinomethyl)-4,5-dihydro-1,3-thiazol-2-yl]-1H-indol-7-yl}pyridine-2-sulfonamide] here?
The melting point was 142 to 144 °C.

For `CN(c1cccc2cc(C3=NCC(CN4CC[S+]([O-])CC4)S3)[nH]c12)S(=O)(=O)c1ccccn1` (stereo not drawn) [Example 304, N-methyl-N-(2-{5-[(1-oxidothiomorpholino)methyl]-4,5-dihydro-1,3-thiazol-2-yl}-1H-indol-7-yl)pyridine-2-sulfonamide], which melting point is on record?
The melting point was 193 to 194 °C.

For `COc1ccccc1S(=O)(=O)N(C)c1cccc2cc(C3=NCC(CCO)S3)[nH]c12` (stereo not drawn) [Example 306, N-{2-[5-(2-hydroxyethyl)-4,5-dihydro-1,3-thiazol-2-yl]-1H-indol-7-yl}-2-methoxy-N-methylbenzenesulfonamide], which melting point is on record?
The melting point was 154 to 155 °C.

For `COc1ccccc1S(=O)(=O)N(C)c1cccc2cc(C3=NCC(CC(=O)O)S3)[nH]c12` (stereo not drawn) [Example 307, (2-{7-[[(2-methoxyphenyl)sulfonyl](methyl)amino]-1H-indol-2-yl}-4,5-dihydro-1,3-thiazol-5-yl)acetic acid], which melting point is on record?
Its melting point is 197 to 198 °C.

With `COc1ccccc1S(=O)(=O)N(C)c1cccc2cc(C3=NCC(CC(N)=O)S3)[nH]c12` (stereo not drawn) [Example 308, 2-(2-{7-[[(2-methoxyphenyl)sulfonyl](methyl)amino]-1H-indol-2-yl}-4,5-dihydro-1,3-thiazol-5-yl)acetamide] as the compound, how does the melting point read?
Its melting point is 227 to 228 °C.
